Laboratory results: patent US20120157529A1 (priority 2009, published 2012)

T1: ToxT (Vibrio cholerae serotype O1, UniProt A5F384)
T1 construct: Full-length ToxT was cloned from Vibrio cholerae 0395; made in house; host or cells: E. coli BL21-CODONPLUS (DE3)-RIL
T1 sequence (A5F384 1-276): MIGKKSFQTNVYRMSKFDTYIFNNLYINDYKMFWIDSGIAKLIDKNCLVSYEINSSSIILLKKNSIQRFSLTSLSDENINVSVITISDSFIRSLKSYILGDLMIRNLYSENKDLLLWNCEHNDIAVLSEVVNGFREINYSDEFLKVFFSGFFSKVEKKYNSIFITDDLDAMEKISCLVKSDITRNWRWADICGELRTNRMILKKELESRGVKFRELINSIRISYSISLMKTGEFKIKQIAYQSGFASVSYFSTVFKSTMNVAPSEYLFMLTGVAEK


Tests used:
ToxT-activated genes = conditions: cited from earlier work
ToxT [1] = target: T1, ToxT; test: Electrophoretic mobility shift assay of ToxT binding to tcp promoter DNA; format: biochemical; conditions: fatty acid 0.002%; 30 minutes at 30° C.
Experimental: Electrophoretic Mobility Shift Assays. Single-stranded, forty base-pair complimentary oligos (Operon) from the tcp promoter (5′-GTGTTATTAAAAAAATAAAAAAACACAGCAAAAAATGACA-3′; SEQ ID NO:1) were end labeled with a biotin-conjugated dUTP using the Biotin 3′ End Labeling Kit (Pierce) following the manufacturer's instructions and then annealed to form double-stranded fragments. EMSA's were carried out using the LightShift Chemiluminescent EMSA Kit (Pierce) following the manufacturer's instructions. Briefly, 2.5 pmole, 4 pmole, 5 pmole of ToxT were mixed with 50 fmole of double-stranded labeled DNA in a binding buffer (10 mM Tris pH 7.5, 1 mM EDTA, 100 mM KCl, 5 mM MgCl2, 1 mM DTT, 0.3 mg mL^−1 BSA, 150 μg herring sperm DNA, and 10% glycerol). Fatty acids were dissolved in methanol and added to a final concentration of 0.002% using the same volume of methanol as a control. To show specificity, a 70-fold molar excess of unlabeled double-stranded tcp fragment and a 70-fold molar excess of unlabeled nonspecific DNA (42 base pairs) were added as controls. Reactions were then incubated for 30 minutes at 30° C. and loaded on a 1×TBE 6% polyacrylamide gel at 4° C. then transferred onto a positively charged membrane (HYBOND XL, GE Healthcare) and detected by chemiluminescence. An EMSA experiment was conducted using the control reagents from the LightShift Chemiluminescent EMSA Kit following the manufacturer's instructions while adding methanol and 0.02% fatty acids.

tcp and ctx operons = test: β-galactosidase assay of tcp-lacZ and ctx-lacZ fusions in V. cholerae cultures with added fatty acids; format: cell-based, Vibrio cholerae; conditions: fatty acid at 0.02% in methanol; LB medium pH 6.5, 30° C., 18 hours
Experimental: Expression is based upon β-galactosidase activity of tcpA-lacZ and ctx-lacZ fusion constructs, respectively. Cells were grown in LB medium pH 6.5 at 30° C. for 18 hours +/− the indicated fatty acids at 0.02% dissolved in methanol. C, control with methanol; PA, sodium palmitate; POA, palmitoleic acid; OA, oleic acid.
β-galactosidase Assays. β-galactosidase activity was determined by conventional methods (Miller (1972) Experiments in Molecular Genetics (Cold Spring Harbor Laboratory Press, Cold Spring Harbor, N.Y.). The tcp-lacZ and ctx-lacZ strains MBN135 (Nye, et al. (2000) J. Bacteriol. 182:4295-4303) and KSK218 (Skorupski & Taylor (1997) Proc. Natl. Acad. Sci. USA 94:265-270) were grown for 18 hours in LB media pH 6.5 at 30° C. Either methanol or the indicated fatty acids were added to 0.02%.
To address whether cis-palmitoleate was capable of influencing the activity of ToxT, different UFAs and SFAs were added to cultures of V. cholerae strains carrying transcriptional fusions to the tcp and ctx operons. […].

V. cholerae strain 0395 = test: Infant mouse cholera model, survival at 48 hours post-infection; format: in vivo; conditions: for protection of mice from cholera / survival versus control and methanol groups: infant mouse, 48 hours post-infection, Tukey HSD p<0.05
Experimental: FIG. 3 is a means diamond plot. Mouse lethality data was converted to survival rates based on percentage of 48 hours at time of death. A one-way ANOVA was used to test for survival rate differences among the five groups in the challenge assay. […] Arcsine transformations were performed on the data to remove possible bias caused by percentages but there was no difference between transformed and non-transformed data. A means diamond illustrates a sample mean and 95% confidence interval. The line across each diamond represents the group mean. The vertical span of each diamond represents the 95% confidence interval for each group. Overlap marks are drawn above and below the group mean. […] The horizontal extent of each group along the x-axis (the horizontal size of the diamond) is proportional to the sample size of each level of the x variable. It follows that the narrower diamonds are usually the taller ones because fewer data points yield a less precise estimate of the group mean. Control is bacteria in broth. MeOH is methanol and MeOHC received a second dose of methanol 1 hour after infection. PA is 0.2% palmiteoleic acid dissolved in methanol and PAC includes a second dose of 0.2% palmiteoleic acid administered 1 hour after infection.
Palmiteoleic acid (0.2%) dissolved in methanol was co-administered orally with approximately a 10 lethal dose 50 (LD50) of V. cholerae strain 0395. In some cases an additional administration of palmiteoleic acid was given to the mice one hour after infection. The ability of palmiteoleic acid to prevent death from cholera was assessed at 48 hours post-infection. The results are presented in FIG. 3 as a means diamond plot.

ToxT [2] = target: T1, ToxT; conditions: cited from earlier work
ToxT [3] = target: ToxT (Vibrio cholerae O395, UniProt A5F384 A5F384:1-276); test: EMSA; bound at 100-fold molar excess of protein (5 pmol ToxT to 50 fmol DNA), not at 50-fold; competed by 70-fold unlabeled probe; 5 mM MgCl2, 100 mM KCl, pH 7.5, 30; conditions: tags: full-length; expressed as intein/CBD fusion (pTXB1, NEB IMPACT-CN), tag cleaved with DTT; label: 3' biotin-dUTP

Molecule	inhibition of expression of ToxT-activated genes (ToxT-activated genes)	effect on ToxT binding to DNA (40 base-pair tcp promoter probe) (ToxT [1])	reduction of expression of tcp and ctx operons (β-galactosidase activity of lacZ fusions) (tcp and ctx operons)	also measured
CCCCC/C=C\C/C=C\C/C=C\C/C=C\CCCC(=O)O [arachidonic acid]	strongly inhibit	–	–	–
CCCCC/C=C\C/C=C\CCCCCCCC(=O)O [linoleic acid]	strongly inhibit	–	–	–
CCCCCCCC/C=C\CCCCCCCC(=O)O [oleic acid]	strongly inhibit	completely prevented ToxT from binding to DNA	10-15 fold	–
CCCCCCCCCCCCCCCC(=O)O [palmitic acid]	not shown to inhibit	no effect on ToxT binding	two-fold	–
CCCCCC/C=C\CCCCCCCC(=O)O [palmitoleic acid, (Z)-9-hexadecenoic acid]	–	completely prevented ToxT from binding to DNA	6-8 fold	mean survival rate (percentage of 48 hours at time of death) (V. cholerae strain 0395; 0.2% co-administered orally plus second dose 1 hour after infection, group PAC {5}): 89.389%; mean survival rate (percentage of 48 hours at time of death) (V. cholerae strain 0395; 0.2% in methanol co-administered orally with about 10 LD50 V. cholerae 0395, group PA {4}): 80.093%; protection of mice from cholera / survival versus control and methanol groups (V. cholerae strain 0395; listed as PA): significantly higher survival rates; protection of mice from cholera / survival versus control and methanol groups (V. cholerae strain 0395; listed as palmiteoleic acid): extremely effective at protecting the mice from cholera
CCCCCCCCCCCCCCCCCC(=O)O [stearic acid]	not shown to inhibit	–	–	–
O=C(O)CCCN1C(=O)c2cccc3cccc(c23)C1=O [virstatin, 4-[N-(1,8-naphthalimide)]-n-butyric acid]	–	–	–	effect on ToxT dimerization and activation of tcp and ctx promoter transcription (ToxT [2]): interferes with ToxT's ability to dimerize and activate transcription of the tcp and ctx promoters
tcp promoter 40 bp toxbox probe (dsDNA) DNA 1: GTGTTATTAAAAAAATAAAAAAACACAGCAAAAAATGACA DNA 2: TGTCATTTTTTGCTGTGTTTTTTTATTTTTTTAATAACAC	–	–	–	binding result (ToxT [3]): binds
